Data reported in ChEMBL document CHEMBL1128878, “Simple compounds, 2-alkyl-2-amino-1,3-propanediols have potent immunosuppressive activity” (Bioorg Med Chem Lett, 1995).
One block for each molecule: values may come before it.

What was measured:
[1] = test system: Rattus norvegicus; test: Compound was evaluated in vivo for the immunosuppressive activity on rat skin allograft at ip dose of 0.3 mg/Kg; assay type: functional
[2] = test system: Rattus norvegicus; test: Compound was evaluated in vivo for the immunosuppressive activity on rat skin allograft at ip dose of 0.1 mg/Kg; assay type: functional
[3] = organism: Mus musculus; test: Inhibition of mouse allogenic mixed leukocyte response (MLR); assay type: functional
[4] = test system: Rattus norvegicus; test: Compound was evaluated in vivo for the immunosuppressive activity on rat skin allograft at ip dose of 3 mg/Kg; assay type: functional
[5] = test system: Rattus norvegicus; test: Compound was evaluated in vivo for the immunosuppressive activity on rat skin allograft at ip dose of 1 mg/Kg; assay type: functional
[6] = test system: Rattus norvegicus; test: Compound was evaluated in vivo for the immunosuppressive activity on rat skin allograft at ip dose of 0.03 mg/Kg; assay type: functional
[7] = test system: Rattus norvegicus; test: Compound was evaluated in vivo for the immunosuppressive activity on rat skin allograft at ip dose of 10 mg/Kg; toxic (animals died); assay type: ADME, organism-based
[8] = test system: Rattus norvegicus; test: Compound was evaluated in vivo for the immunosuppressive activity on rat skin allograft at ip dose of 30 mg/Kg; assay type: functional
[9] = test system: Rattus norvegicus; test: Compound was evaluated in vivo for the immunosuppressive activity on rat skin allograft at ip dose of 10 mg/Kg; assay type: functional
[10] = test system: Rattus norvegicus; test: Compound was evaluated in vivo for the immunosuppressive activity on rat skin allograft at ip dose of 1 mg/Kg; toxic (animals died); assay type: functional, organism-based

SMILES: CCCCCCCCCCCCCCCC(N)(CO)CO
MST [1]: 33.5 days
MST [2]: 14 days
IC50 [3]: 2.9 nM
MST [4]: 57.8 days
MST [5]: 45.3 days
MST [6]: 10.8 days
MST [7]: Toxic (animals died)

SMILES: C/C=C/C[C@@H](C)[C@@H](O)[C@H]1C(=O)N[C@@H](CC)C(=O)N(C)CC(=O)N(C)[C@@H](CC(C)C)C(=O)N[C@@H](C(C)C)C(=O)N(C)[C@@H](CC(C)C)C(=O)N[C@@H](C)C(=O)N[C@H](C)C(=O)N(C)[C@@H](CC(C)C)C(=O)N(C)[C@@H](CC(C)C)C(=O)N(C)[C@@H](C(C)C)C(=O)N1C [CYCLOSPORINE]
MST [8]: 19.2 days
MST [4]: 10.8 days
MST [9]: 15.2 days
MST [5]: 7.3 days

SMILES: CCCCCCCCCCCCCC(N)(CO)CO
IC50 [3]: 12 nM

SMILES: CCCCCCCCCCCCCCCC[C@@H](O)[C@H](O)C(N)(CO)CO
IC50 [3]: 320 nM

SMILES: CCCCCCCCCCCCC/C=C/C[C@@H](O)[C@H](O)C(N)(CO)CO
IC50 [3]: 56 nM

SMILES: CCCCCCC(=O)CCCCCC/C=C/C[C@@H](O)[C@H](O)[C@@](N)(CO)C(=O)O [MYRIOCIN]
MST [1]: 11.2 days
MST [2]: 9.2 days
MST [10]: Toxic (animals died)
IC50 [3]: 3 nM
MST [6]: 7.8 days

SMILES: CCCCCCCCCCCCCCC(N)(CO)CO
IC50 [3]: 5.9 nM

Further molecules by falling IC50 [3], results first:

IC50 [3]: 3700 nM
SMILES: CCCCCCCCC(N)(CO)CO

IC50 [3]: 1630 nM
SMILES: CCCCCCC(O)CCCCCCCCC[C@@H](O)[C@H](O)C(N)(CO)CO (some centres undefined)

IC50 [3]: 1600 nM
SMILES: CCCCCCCCCCCCCCCCCCCCCCC(N)(CO)CO

IC50 [3]: 440 nM
SMILES: CCCCCCCCCCC(N)(CO)CO

IC50 [3]: 270 nM
SMILES: CCCCCCCCCCCCC(N)(CO)CO

IC50 [3]: 190 nM
SMILES: CCCCCCCCCCCCCCCCCCCCC(N)(CO)CO

IC50 [3]: 130 nM
SMILES: CCCCCCCCCCCCCCCCCCC(N)C(=O)O (centres undefined)

IC50 [3]: 10 nM
SMILES: CCCCCCCCCCCCCCCCC(N)(CO)CO

IC50 [3]: 4.7 nM
SMILES: CCCCCCC(O)CCCCCC/C=C/C[C@@H](O)[C@H](O)C(N)(CO)CO (some centres undefined)
